The structures appear in SMILES notation. Where only a bound is given, the exact number is not on record here.

Data set [1] has as its system Pseudomonas aeruginosa (ATCC 9027). Kind of data set: Antibacterial activity test (MIC). The conditions noted are these: broth culture, 25 to 32° C., 24 to 72 hours; tested 0.01 to 10% (v/v). Format: cell-based. As for the experimental part: (§1) In order to compare the antibacterial activities by the position and stereoscopic orientation of the hydroxyl group of the diol, the antibacterial activities (minimum inhibitory concentration, MIC) against the samples described in Table 1 below, that is, six kinds of diols such as 1,3-butanediol, were measured.
(§2) The antibacterial activity measurement tests were performed using bacteria, yeasts and molds, such as Escherichia coli (ATCC 8739), Pseudomonas aeruginosa (ATCC 9027), Staphylococcus aureus (ATCC 6538), Candida albicans (ATCC 10231), and Aspergillus niger; (ATCC 16404). Respective substances or the like were added to Tryptic Soy broth and Sabouraud Dextrose (SD) broth at a concentration of 0.01 to 10% (v/v), the culture solution was prepared in a liquid phase, and the bacteria, yeasts, and molds were inoculated, and then cultured at 25 to 32° C. for 24 to 72 hours to observe the state of the bacteria.

For data set [2], the system named is Staphylococcus aureus (ATCC 6538). Kind of data set: Antibacterial activity test (MIC). The note with it: broth culture, 25 to 32° C., 24 to 72 hours; tested 0.01 to 10% (v/v). Format: cell-based. The protocol:
as §1, §2

Data set [3] relates to Escherichia coli (ATCC 8739). Put plainly: Antibacterial activity test (MIC). The note with it: broth culture, 25 to 32° C., 24 to 72 hours; tested 0.01 to 10% (v/v). Format: cell-based. As for the experimental part: as §1, §2
For data set [4], the system named is Candida albicans (ATCC 10231). Kind of data set: Antibacterial activity test (MIC). Format: cell-based. The note with it: broth culture, 25 to 32° C., 24 to 72 hours; tested 0.01 to 10% (v/v). As for the experimental part: as §1, §2
Data set [5] has as its system Aspergillus niger (ATCC 16404). Kind of data set: Antibacterial activity test (MIC). The note with it: broth culture, 25 to 32° C., 24 to 72 hours; tested 0.01 to 10% (v/v). Format: cell-based. The protocol: as §1, §2
Data set [6] in a line: Skin irritation test, 24 h patch test. Format: in vivo, human. As for the experimental part: In order to evaluate the skin safety of a human body on 1,3-butanediol, 1,2-butanediol and 1,2-hexanediol (conventionally used diol), which are similar to meso-2,3-butanediol, S,S-2,3-butanediol and R,R-2,3-butanediol that are stereoisomers of 2,3-butanediol except that the position of a hydroxy group is different, the patch test was carried out for 24 hours. The patch was attached to the upper part of the subject's back, and 20 μl of the prepared test substance was applied to the patch using an IQ chamber (chemotechique, Sweeden). The patch was attached and after the lapse of 24 hours, the patch was removed. After removal of the patch, the first reading was performed after 30 minutes, and the second reading was performed after 24 hours.
In order to investigate the intensity of the skin irritation of the samples, weighting values were given according to the degree of positive reaction of the skin, skin average reactivity was determined, and the skin irritation of the sample was judged. The skin average reactivity was calculated using the mathematical formula 1 below, and the determination criteria are as shown in Table 5 below.

Where [7] appears, read: Content 30%, 20 μl, 24 h patch on back, less than 1 = no irritation, 1-3 mild, 3-5 moderate.

Turning to `CCC(O)CO` (stereo not shown) [1,2-butanediol], the “minimum inhibitory concentration, MIC, P. aeruginosa” value in data set [1] is reported as 2.5 % (v/v). For the same compound, the “minimum inhibitory concentration, MIC, S. aureus” value in data set [2] is listed as 1.25 % (v/v). In addition, the “minimum inhibitory concentration, MIC, E. coli” value in data set [3] is 5 % (v/v). Also, in data set [4], the “minimum inhibitory concentration, MIC, C. albicans” value was 5 % (v/v). Besides, the “minimum inhibitory concentration, MIC, A. niger” value in data set [5] is 2.5 % (v/v). In addition, the “Skin irritation Score (skin average reactivity)” value (“Skin irritation Score” for short) in data set [6] (setting [7]) turned out to be 2.48.
For `CCCCC(O)CO` (stereo not shown) [1,2-hexanediol], in data set [1], the “minimum inhibitory concentration, MIC, P. aeruginosa” value is 1.25 % (v/v). For the same compound, the “minimum inhibitory concentration, MIC, S. aureus” value in data set [2] is given as 2.5 % (v/v). In addition, the “minimum inhibitory concentration, MIC, E. coli” value in data set [3] is on record as 1.25 % (v/v). The “minimum inhibitory concentration, MIC, C. albicans” value in data set [4] is reported as 1.25 % (v/v). For the same compound, in data set [5], the “minimum inhibitory concentration, MIC, A. niger” value is given as 0.625 % (v/v). For the same compound, the “Skin irritation Score” value in data set [6] (human, in vivo, 24 h, 20 %) came to 2.54.
Consider `CC(O)CCO` (stereo not shown) [1,3-butanediol], for which the “minimum inhibitory concentration, MIC, P. aeruginosa” value in data set [1] was >10 % (v/v). The “minimum inhibitory concentration, MIC, S. aureus” value in data set [2] is listed as >10 % (v/v). The “minimum inhibitory concentration, MIC, E. coli” value in data set [3] is given as >10 % (v/v). In addition, the “minimum inhibitory concentration, MIC, C. albicans” value in data set [4] was >10 % (v/v). The “minimum inhibitory concentration, MIC, A. niger” value in data set [5] is on record as >10 % (v/v). For the same compound, in data set [6] (setting [7]), the “Skin irritation Score” value was found to be 0.52.
In the case of `C[C@H](O)[C@@H](C)O` [Meso-2,3-butanediol, meso-2,3-butanediol], the “minimum inhibitory concentration, MIC, P. aeruginosa” value in data set [1] was 2.5 % (v/v). The “minimum inhibitory concentration, MIC, S. aureus” value in data set [2] is listed as 5 % (v/v). Moreover, the “minimum inhibitory concentration, MIC, E. coli” value in data set [3] is recorded as 1.25 % (v/v). The “minimum inhibitory concentration, MIC, C. albicans” value in data set [4] is listed as 2.5 % (v/v). In addition, in data set [5], the “minimum inhibitory concentration, MIC, A. niger” value is 1.25 % (v/v). Further, the “Skin irritation Score” value in data set [6] (human, in vivo, 24 h, 30 %) worked out at 0.41. For the same compound, the “numerical value of skin irritation, in words” value in data set [6] (in vivo) is reported as “lower”.
`C[C@@H](O)[C@@H](C)O` [R,R-2,3-butanediol]: the “minimum inhibitory concentration, MIC, P. aeruginosa” value in data set [1] is on record as 5 % (v/v). For the same compound, the “minimum inhibitory concentration, MIC, S. aureus” value in data set [2] is 10 % (v/v). Moreover, the “minimum inhibitory concentration, MIC, E. coli” value in data set [3] is listed as 2.5 % (v/v). In addition, the “minimum inhibitory concentration, MIC, C. albicans” value in data set [4] was 5 % (v/v). In data set [5], the “minimum inhibitory concentration, MIC, A. niger” value is 5 % (v/v). In addition, in data set [6] (human, in vivo, 24 h, 30 %), the “Skin irritation Score” value worked out at 1.45.
`C[C@H](O)[C@H](C)O` [S,S-2,3-butanediol]: the “minimum inhibitory concentration, MIC, P. aeruginosa” value in data set [1] is reported as 5 % (v/v). Further, the “minimum inhibitory concentration, MIC, S. aureus” value in data set [2] is listed as 2.5 % (v/v). The “minimum inhibitory concentration, MIC, E. coli” value in data set [3] is 5 % (v/v). Besides, the “minimum inhibitory concentration, MIC, C. albicans” value in data set [4] is reported as 5 % (v/v). In addition, in data set [5], the “minimum inhibitory concentration, MIC, A. niger” value was 1.25 % (v/v). The “Skin irritation Score” value in data set [6] (human, in vivo, 24 h, 30 %) was found to be 2.12.

The values above are taken from patent publication US10525017B2, “Composition containing meso-2,3-butanediol” (Amorepacific Corporation, priority 2014, dated 2020).
